The values below come from publication PMC7505085 (ACS chemical biology, 2015).

The test system of one data set is T. b. brucei. In words: growth inhibitory activity against axenic T. b. brucei parasites. The format is cell-based, Trypanosoma brucei. The following applies: highest concentration tested 10 μM; for IC50: read-out: IC50 T. b. brucei.
The subject of a further data set is T98G cells. The data set is described as follows: cytotoxicity in mammalian cells. The settings on record: read-out: IC50 mammalian cells. The format is cell-based.
A further data set relates to HeLa cells. The data set is described as follows: cytotoxicity in mammalian cells. The settings on record: read-out: IC50 mammalian cells. It counts as cell-based.
The conditions of data set [1]: HAT treatment; cited from earlier work.

Like-named read-outs stand apart in the source and are kept apart here.

On to `CC1=CC=CC[C@H](C)NC(=O)C=CC=CC=C[C@H](C)[C@@H](O)[C@H](O)[C@@H](O)C[C@@H](O)/C=C\C=CC(C)=C1` [Lobosamide A], for which, in the data set with T. b. brucei, the “antitrypanosomal activity (in words)” value was “sub-micromolar” and the IC50 was found to be 0.8 µM. Also, in the data set with T98G cells, the IC50 is more than 66 µM.

Regarding `CC1=CC=CC[C@H](C)NC(=O)C=CC=CC=C[C@H](C)[C@@H](O)[C@H](O)[C@@H](O)C[C@@H](O)/C=C/C=CC(C)=C1` [Lobosamide B], the half-inhibitory concentration (IC50) in the data set with T. b. brucei was 6.1 µM; with T. b. brucei (listed as B) it was less than 10 µM; in the data set on T98G cells, more than 66 µM.

In the case of `CC1=CC=CC[C@H](C)NC(=O)C=CC=CC=C[C@H](C)[C@@H](O)C[C@@H](O)C[C@@H](O)/C=C\C=CC(C)=C1` [Lobosamide C], in the data set with T. b. brucei, the “antitrypanosomal activity (in words)” value is “inactive” and the IC50 is more than 10 µM. Moreover, the IC50 in the data set on HeLa cells is more than 33 µM.

On to `CC1=CC=CC=CC[C@H](C)NC(=O)C=CC=CC=CC[C@@H](O)[C@H](O)[C@@H](O)C[C@@H](O)C=CC=C1` [Mirilactam A], for which, in the data set with T. b. brucei, the “antitrypanosomal activity (in words)” value is listed as “lack of activity” and the IC50 is more than 10 µM.

Consider `CC1=CC=CC=CC[C@H](C)NC(=O)C=CC=CC=CC[C@@H](O)C[C@@H](O)C[C@@H](O)C=CC=C1` [Mirilactam B], for which the IC50 with T. b. brucei is more than 10 µM; with HeLa cells, more than 33 µM.

For `Nc1nc(N)nc(Nc2ccc([As]3SCC(CO)S3)cc2)n1` (centres unmarked) [melarsoprol], the drug-induced death rate in data set [1] is recorded as 5%.
